This is an account of results in patent publication US7579488B2 (Eli Lilly and Company, priority 2003, dated 2009).

Where “and” joins values, the source holds several entries; their conditions need not be identical. Equal entries are not always repeated. Where two headings read alike, the source gives them in different places.

One data set relates to female DBF mice. The data set is described as follows: Mouse hypercalcemia assay. To be noted: oral gavage for 6 days.
Another data set relates to KERtr cells. Description: Keratinocyte proliferation assay. Particulars: Homo sapiens, read-out: Kera. Prolif. IC50. The format is cell-based. On the procedure:
5. The Keratinocyte Proliferation Assay
This Assay is indicative for the treatment of psoriasis.
(5) The Keratinocyte Proliferation Assay:
KERtr cells (Human skin keratinocyte transformed with a retrovirus vector, obtained from ATCC) were plated in 96-well flat-bottomed plates (3000 cells/well) in 100 μl keratinocyte serum free medium supplemented with bovine pituitary extract in the absence of EGF (Life Technologies, Rockville, Md.) and incubated at 37° C. for two days. The cells were treated with various concentrations of VDR ligands (ten-fold serial dilution from 10,000 nM to 0.1 nM in triplicate), dissolved in 100 μl keratinocyte serum free medium supplemented with bovine pituitary extract in the absence of EGF and incubated at 37° C. for 72 hr. […] Potency values (IC50) values were determined as the concentration (nM) of compound that elicited a half-maximal response.

The next data set has as its system rat osteocalcin promoter. The data set is described as follows: OCN (osteocalcin) promoter assay. Particulars: RG-15 (ROS 17/2.8) cells. The format is cell-based. On the procedure: 3. The OCN (Osteocalcin) Promoter Assay
The OCN Promoter Assay is an indicator and marker for osteoporosis. […] Preferred assay results are less than 50 nM.
(3) Materials and Method for The OCN Promoter Assay:
The activation of osteocalcin by VDR ligands was evaluated in a rat osteoblast-like cell line RG-15 (ROS 17/2.8) stably expressing rat osteocalcin promoter fused with luciferase reporter gene. […] Confluent RG-15 cells maintained in DMEM/F-12 medium (3:1) containing 5% FBS, 300 μg/ml G418 and at 37° C. under 5% CO2/95% air atmosphere were trypsinized (0.25% trypsin) and plated into white opaque 96-well cell culture plates (25000 cells/well). After 24 hr, cells (in DMEM/F-12 medium+2% FBS) were treated with various concentrations of compounds, dissolved in DMSO. The final DMSO concentration remained at 0.01% (v/v). After 48 hr treatment, the medium was removed, cells were lysed with 50 μl of lysis buffer (From Luciferase reporter assay system, Roche Diagnostics, Indianapolis, Ind.) and assayed for luciferase activity using the Luciferase Reporter Gene Assay kit from Boehringer Mannheim as per manufacturer's specifications.

Another data set concerns the target T1, VDR (Homo sapiens, UniProt P11473).
T1 construct: the receptor expression vector pGal4-VDR-LBD (10 ng); expressed in transfected cells; host or cells: Caco-2 cells
T1 sequence (P11473 127-423 limits assumed): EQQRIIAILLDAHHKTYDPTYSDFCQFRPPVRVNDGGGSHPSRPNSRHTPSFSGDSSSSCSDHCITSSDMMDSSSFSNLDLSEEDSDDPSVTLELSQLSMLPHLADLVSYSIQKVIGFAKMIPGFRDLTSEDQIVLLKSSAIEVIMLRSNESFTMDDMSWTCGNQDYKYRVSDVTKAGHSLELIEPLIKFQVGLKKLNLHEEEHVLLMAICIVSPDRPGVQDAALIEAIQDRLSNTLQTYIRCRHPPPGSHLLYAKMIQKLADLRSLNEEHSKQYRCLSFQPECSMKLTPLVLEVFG
The data set is described as follows: VDR CTF (Caco-2 cell co-transfection) assay. The format is cell-based. Particulars: Caco-2 cells, pGal4-VDR-LBD co-transfection, luciferase; several values separated by /. On the procedure: 2. The Caco-2 Cell Co-Transfection Assay:
The Caco-2 cell assay is an indicator for the undesirable condition of hypercalcemia. This co-transfection assay is a surrogate assay for in vivo calcemic activity of VDR ligands. […] Preferred assay results are greater than 1000 nM.
(2) Materials and Method for the Caco-2 Cell Assay:
Caco-2 cells, grown in phenol red free, DMEM (Invitrogen, Carlsbad, Calif.) containing 10% charcoal-stripped FCS (Hyclone, Logan, Utah), were transfected with Fugene 6 reagent (Roche Diagnostics, Indianapolis, Ind.). Cells (5000/well) were plated 18 h before transfection in a 96 well plate. The Cells were transfected with Gal4-responsive reporter pFRLuc (150 ng, Stratagene, La Jolla Calif.) and the receptor expression vector pGal4-VDR-LBD (10 ng), along with Fugene 6 reagent (0.2 μl/well). The DNA-Fugene complex was formed by incubating the mixture for 30 min at room temperature. The cells were transfected in triplicate for 5 h, and treated with various concentrations of VDR ligands (form 0.01 nM to 10,000 nM concentration range) 18 h post-transfection. The luciferase activity was quantified using Steady-Glo reagent kit (Promega, Madison, Wis.) as per manufacturer's specifications.

The next data set concerns the target T2, RXR-VDR heterodimer (Homo sapiens, UniProt P11473).
T2 construct: Add the Gal4-RXR-DEF and VP16-VDR-LBD; expressed in transfected cells; host or cells: SaOS-2 cells
T2 sequence (P11473 127-423 limits assumed): T1 sequence (P11473 127-423 limits assumed)
T2 sequence (P19793 201-462 partner limits assumed): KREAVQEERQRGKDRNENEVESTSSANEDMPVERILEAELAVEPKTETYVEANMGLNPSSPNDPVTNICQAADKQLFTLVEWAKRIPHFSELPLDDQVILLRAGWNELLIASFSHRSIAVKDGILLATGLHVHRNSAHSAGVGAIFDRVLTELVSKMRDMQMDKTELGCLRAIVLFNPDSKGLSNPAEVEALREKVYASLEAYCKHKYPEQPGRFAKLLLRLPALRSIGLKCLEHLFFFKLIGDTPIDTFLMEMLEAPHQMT
Description: RXR-VDR heterodimerization assay (SaOS-2 cells). The format is cell-based. Particulars: Gal4-RXR-DEF/VP16-VDR-LBD luciferase reporter, several values in a cell separated by /. On the procedure:
1. The RXR-VDR Heterodimer Assay:
This assay provides the VDR activity of a test compound.
(1) Materials and Method for RXR-VDR Heterodimerization Assay:
Luciferase Assay Reagent: • Use Steady-Glo Luciferase Reagent from Promega (Cat #E2550) Consists of: a. E2533 Assay Substrate, lyopholized product and b. E2543 Assay Buffer. • Thaw at room temperature • Store Cell Harvesting Aspirate media from culture flask, rinse cells with HBSS and aspirate. Add trypsin and incubate. When cells appear detached, resuspend cells in growth media. Transfer into a new flask with fresh growth media for passaging the cells. Plate well plates and two extra plates A. Cell Count Mix the cell suspension using pipette Use Hematocytometer to count the cells Load cell suspension onto the hemocytometer chamber Count cells. […] In sterile flask add cell suspension to plating media. Mix. Add cells/well. Place the cells in the incubator. Cells should be about 75% confluent prior to transfection. DAY 2: Transfection Step 1: DNA and Media Add plain DMEM media to tubes for mixing the DNA Add the Reporter gene pFR-LUC Add the Gal4-RXR-DEF and VP16-VDR-LBD Step 2: FuGENE and Media Prepare plain DMEM media in a ubes for mixing FuGENE Add FuGENE 6 Transfection Reagent Incubate Step 3: FuGENE, DNA and Media Complex Add FuGENE Media complex from step 2 to DNA Media complex from step 1 Incubate Step 4: FuGENE, DNA and Media Complex to-well plate Add FuGENE-DNA-Media complex from step 3 to each plate Incubate. […] Day 4: Luciferase Assay Read the plates after drug treatment Remove part of media from all the wells and leave remainder Add Steady-Glo Luciferase Reagent mixture/wells Incubate Count each well using a Luminescence counter, Top Count NXT by Packard
Set a delay between plates to reduce the background.

[1] abbreviates: Rattus norvegicus, comparison compounds.
[2] abbreviates: 72 h, BrdU incorporation, several values separated by /.
The mark [3] stands for this setting: serum ionized calcium 6 hours after last dosing.
The mark [4] stands for this setting: Rattus norvegicus, 48 h, 48 hr treatment, luciferase, several values separated by /.
The mark [5] stands for this setting: 48 hr treatment, luciferase, several values separated by /.

Description for female DBF mice: The Mouse Hypercalcemia Assay
The Mouse Hypercalcemia Assay is a six day hypercalcemia test for toxicity and selectivity.
(4) Materials and Method for the Mouse Hypercalcemia Assay:
Weanling, virus-antibody-free, five to six weeks old female DBF mice (Harlan, Indianapolis, Ind.) are used for all the studies. Animals are allowed to acclimate to local vivarium conditions for 2 days. […] The animals then are divided into groups with 4-5 mice per group. Different doses of test compounds prepared in 10% Ethanol and 90% sesame oil are administered to mice orally via gavage for 6 days. 1α-25(OH)2D3 0.5 μg/kg/d was also given to one group of mice as the positive control. […] Raw data of group differences is assessed by analysis of variance (ANOVA) using Fisher's protected least significant difference (PLSD) where the significance level was P<0.05.

As to `CCC(CC)(c1ccc(OCC(=O)C(C)(C)C)c(C)c1)c1ccc(OCC(=O)C(C)(C)C)c(C)c1` [DD, reference compound], in the data set on female DBF mice (comparison compounds), the “Mouse Hypercal” value is 1000 µg/kg/day. For the same molecule, the IC50 in the data set with KERtr cells (comparison compounds) amounted to 1060 nM. The EC50 in the data set with rat osteocalcin promoter (setting [1]) was 31.1 nM.

Consider `CCC(CC)(c1ccc(OCC(=O)C(C)(C)C)c(C)c1)c1ccc(OC[C@H](O)C(C)(C)C)c(C)c1` [EE, reference compound], for which, in the data set with female DBF mice (comparison compounds), the “Mouse Hypercal” value is 1000 µg/kg/day. Besides, the EC50 in the data set with rat osteocalcin promoter (setting [1]) worked out at 341 nM.

For `CCC(CC)(c1ccc(OCC(=O)C(C)(C)C)c(C)c1)c1cc2ccc(C(=O)NCC(=O)O)cc2o1` [Ex 20, [(2-{1-[4-(3,3-Dimethyl-2-oxo-butoxy)-3-methyl-phenyl]-1-ethyl-propyl}-benzofuran-6-carbonyl)-amino]-acetic acid], the EC50 on VDR was 773 nM; on RXR-VDR heterodimer, 264 nM and 68 nM. Further, the IC50 in the data set with KERtr cells (setting [2]) turned out to be 1000 nM.

As to `CCC(CC)(c1ccc(OCC(=O)C(C)(C)C)c(C)c1)c1cc(C)c2oc(C(=O)NCC(=O)O)cc2c1` [Ex 28, [(5-{1-[4-(3,3-dimethyl-2-oxo-butoxy)-3-methyl-phenyl]-1-ethyl-propyl}-7-methyl-benzofuran-2-carbonyl)-amino]-acetic acid], the “Mouse Hypercal” value in the data set on female DBF mice (setting [3]) is greater than 1000 µg/kg/day. Further, the IC50 in the data set on KERtr cells (setting [2]) turned out to be 11 nM. The EC50 in the data set on rat osteocalcin promoter (setting [4]) is 4 nM.

Turning to `CCC(CC)(c1ccc(OCC(O)C(C)(C)C)c(C)c1)c1ccc2oc(C(=O)NCC(=O)O)cc2c1` (stereo not shown) [Ex 33, [(5-{1-ethyl-1-[4-(2-hydroxy-3,3-dimethyl-butoxy)-3-methyl-phenyl]-propyl}-benzofuran-2-carbonyl)-amino]-acetic acid], the EC50 on VDR was determined as 178 nM; in the data set on rat osteocalcin promoter (setting [4]), 0.4 nM; at RXR-VDR heterodimer, 9 nM.

For the molecule `CCC(CC)(c1ccc(OCC(=O)C(C)(C)C)c(C)c1)c1ccc2oc(C(=O)O)c(C)c2c1` [Ex 34, 5-{1-[4-(3,3-Dimethyl-2-oxo-butoxy)-3-methyl-phenyl]-1-ethyl-propyl}-3-methyl-benzofuran-2-carboxylic acid], the “Mouse Hypercal” value in the data set on female DBF mice (setting [3]) is greater than 3000 µg/kg/day. Moreover, the 50% effective concentration (EC50) on VDR was 896 nM; in the data set with rat osteocalcin promoter (setting [5]), 21 nM; with rat osteocalcin promoter (setting [4]), 13 nM.

With `CCC(CC)(c1ccc(OCC(O)C(C)(C)C)c(C)c1)c1ccc2oc(C(=O)O)c(C)c2c1` (stereo not shown) [Ex 35, 5-{1-Ethyl-1-[4-(2-hydroxy-3,3-dimethyl-butoxy)-3-methyl-phenyl]-propyl}-3-methyl-benzofuran-2-carboxylic acid], the results for the 50% effective concentration (EC50) at VDR, in the data set on rat osteocalcin promoter (setting [5]) and in the data set with rat osteocalcin promoter (setting [4]) were 753 nM, 21 nM and 13 nM, respectively. In addition, the IC50 in the data set with KERtr cells (setting [2]) is 700 nM.

Regarding `CCC(CC)(c1ccc(OCC(O)C(C)(C)C)c(C)c1)c1ccc2oc(C(=O)N(C)C)c(C)c2c1` (stereo not shown) [Ex 37, 5-{1-ethyl-1-[4-(2-hydroxy-3,3-dimethyl-butoxy)-3-methyl-phenyl]-propyl}-3-methyl-benzofuran-2-carboxylic acid dimethylamide], the 50% effective concentration (EC50) at VDR is 865 nM; at RXR-VDR heterodimer it was 777 nM and 133 nM. The IC50 in the data set with KERtr cells (setting [2]) was greater than 1000 nM.

On to `CCC(CC)(c1ccc(OCC(O)C(C)(C)C)c(C)c1)c1ccc2oc(C(=O)NCC(=O)O)c(C)c2c1` (stereo not shown) [Ex 39, [(5-{1-ethyl-1-[4-(2-hydroxy-3,3-dimethyl-butoxy)-3-methyl-phenyl]-propyl}-3-methyl-benzofuran-2-carbonyl)-amino]-acetic acid], for which the EC50 came to 419 nM at VDR, 0.4 nM in the data set on rat osteocalcin promoter (setting [4]) and 138 nM at RXR-VDR heterodimer. In addition, in the data set with KERtr cells (setting [2]), the IC50 was determined as 19 nM.

For `CCC(CC)(c1ccc(OCC(O)C(C)(C)C)c(C)c1)c1cc2cc(C(=O)O)ccc2o1` (stereo not shown) [Ex. 4, 2-{1-Ethyl-1-[4-(2-hydroxy-3,3-dimethyl-butoxy)-3-methyl-phenyl]-propyl}-benzofuran-5-carboxylic acid], the EC50 at VDR was 312 nM and 368 nM.

As for `CCC(CC)(c1ccc(OCC(=O)C(C)(C)C)c(C)c1)c1cc2cc(C(=O)N(C)C)ccc2o1` [Ex. 5, 2-{1-[4-(3,3-Dimethyl-2-oxo-butoxy)-3-methyl-phenyl]-1-ethyl-propyl}-benzofuran-5-carboxylic acid dimethylamide], the EC50 was found to be 1200 nM on VDR, 79 nM in the data set with rat osteocalcin promoter (setting [5]) and 106 nM with rat osteocalcin promoter (setting [4]).

With `CCC(CC)(c1ccc(OCC(O)C(C)(C)C)c(C)c1)c1cc2cc(C(=O)NCC(=O)O)ccc2o1` (stereo not shown) [Ex. 8, [(2-{1-Ethyl-1-[4-(2-hydroxy-3,3-dimethyl-butoxy)-3-methyl-phenyl]-propyl}-benzofuran-5-carbonyl)-amino]-acetic acid], the EC50 on VDR was 120 nM; in the data set with rat osteocalcin promoter (setting [4]), 0.6 nM; at RXR-VDR heterodimer it was 6 nM and 2 nM. Further, the IC50 in the data set on KERtr cells (setting [2]) turned out to be 0.3 nM.

With `CCC(CC)(c1ccc(OCC(O)C(C)(C)C)c(C)c1)c1cc2cc(C(=O)Nc3nn[nH]n3)ccc2o1` (stereo not shown) [Ex. 13, 2-{1-Ethyl-1-[4-(2-hydroxy-3,3-dimethyl-butoxy)-3-methyl-phenyl]-propyl}-benzofuran-5-carboxylic acid (2H-tetrazol-5-yl)-amide], the concentration for a half-maximal effect (EC50) on VDR was determined as 602 nM; in the data set on rat osteocalcin promoter (setting [4]), 3 nM. Also, in the data set on KERtr cells (setting [2]), the IC50 is greater than 1000 nM.

One may read the IC50 as the concentration that gives 50% inhibition. A word on the EC50: it is the midpoint of the concentration-response curve.
